These results are taken from ChEMBL document CHEMBL4385595, “Advancement of multi-target drug discoveries and promising applications in the field of Alzheimer's disease” (Eur J Med Chem, 2019).

By IC50 is commonly meant the midpoint of a concentration-inhibition curve. A word on the inhibition: it is the percentage by which the read-out fell short of the control.

In test [1] the target is T1, Cholinesterase (Homo sapiens, UniProt P06276). In words: Inhibition of BChE (unknown origin).
The subject of test [2] is SK-N-SH. In words: Inhibition of apoptosis in human SK-N-SH cells assessed as […] in cleaved caspase-3 by Western blot analysis. The format is functional, cell-based. (A western blot detects proteins with antibodies after separation by electrophoresis.)
Test [3] in a line: Inhibition of calcium channel in rat ileum intestine assessed as reduction in Ca-induced contraction. The test is classed as tissue-based.
The target of test [4] is T1, Cholinesterase. In words: Inhibition of BuChE (unknown origin) assessed as decrease in thiocholine accumulation by spectrophotometry.
Test [5] concerns Mus musculus. As to the kind of experiment: In-vivo inhibition of NMDA receptor in mouse assessed as reduction in NMDA-induced convulsions administered intraperitoneally 40 mins before NMDA injection. The test is classed as functional, organism-based.
For test [6], the target named is Acetylcholinesterase (Homo sapiens, UniProt P22303). In words: Inhibition of human AChE.
The target in test [7] is Glutamate [NMDA] receptor. As to the kind of experiment: Inhibition of NMDA receptor (unknown origin). The test is classed as protein-complex assay, Homo sapiens.
Test [8] deals with T1, Cholinesterase. In words: Inhibition of human BuChE.
The target in test [9] is Amyloid-beta precursor protein (Homo sapiens) (UniProt P05067). As to the kind of experiment: Inhibition of self-induced amyloid beta (1 to 42) (unknown origin) aggregation at 20 uM.
In test [10] the target is Microtubule-associated protein tau (Homo sapiens) (UniProt P10636). As to the kind of experiment: Inhibition of tau aggregation (unknown origin) at 20 uM.
Test [11] addresses Beta-secretase 1 (Homo sapiens, UniProt P56817). As to the kind of experiment: Inhibition of human recombinant BACE-1 using 19F peptide as substrate measured after 5 hrs by fluorescence method.
For test [12], the target named is Glycogen synthase kinase-3 beta (Homo sapiens, UniProt P49841). As to the kind of experiment: Inhibition of human recombinant GSK-3beta using 19F peptide as substrate measured after 1.5 hrs by fluorescence method.
Glycogen synthase kinase-3 beta, sequence (P49841 whole entry): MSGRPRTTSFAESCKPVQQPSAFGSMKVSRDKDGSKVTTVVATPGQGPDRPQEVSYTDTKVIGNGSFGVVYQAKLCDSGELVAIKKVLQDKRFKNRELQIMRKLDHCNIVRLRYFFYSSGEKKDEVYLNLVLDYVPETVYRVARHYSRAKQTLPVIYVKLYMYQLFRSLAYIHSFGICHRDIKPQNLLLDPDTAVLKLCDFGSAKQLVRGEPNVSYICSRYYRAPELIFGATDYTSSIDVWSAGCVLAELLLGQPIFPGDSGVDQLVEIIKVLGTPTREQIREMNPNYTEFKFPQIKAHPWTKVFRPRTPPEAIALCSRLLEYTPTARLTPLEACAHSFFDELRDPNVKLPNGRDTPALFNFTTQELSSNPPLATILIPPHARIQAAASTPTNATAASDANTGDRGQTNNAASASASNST

T1 sequence (P06276 whole entry): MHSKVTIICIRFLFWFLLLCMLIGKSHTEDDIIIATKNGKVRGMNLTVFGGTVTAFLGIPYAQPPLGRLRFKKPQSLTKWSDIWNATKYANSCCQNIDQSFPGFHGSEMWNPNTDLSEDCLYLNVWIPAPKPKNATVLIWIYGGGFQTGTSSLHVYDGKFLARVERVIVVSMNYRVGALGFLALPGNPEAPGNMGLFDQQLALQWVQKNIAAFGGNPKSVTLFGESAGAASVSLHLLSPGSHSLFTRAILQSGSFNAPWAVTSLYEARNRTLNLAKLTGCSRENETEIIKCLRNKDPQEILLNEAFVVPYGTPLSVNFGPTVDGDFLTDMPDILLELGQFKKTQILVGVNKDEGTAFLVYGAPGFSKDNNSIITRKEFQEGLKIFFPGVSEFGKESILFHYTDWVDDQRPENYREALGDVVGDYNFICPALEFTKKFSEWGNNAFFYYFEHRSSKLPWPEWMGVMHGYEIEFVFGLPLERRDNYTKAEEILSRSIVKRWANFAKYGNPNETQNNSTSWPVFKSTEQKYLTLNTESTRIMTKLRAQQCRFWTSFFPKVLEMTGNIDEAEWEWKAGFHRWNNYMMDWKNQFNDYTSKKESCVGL
Acetylcholinesterase, sequence (P22303 whole entry): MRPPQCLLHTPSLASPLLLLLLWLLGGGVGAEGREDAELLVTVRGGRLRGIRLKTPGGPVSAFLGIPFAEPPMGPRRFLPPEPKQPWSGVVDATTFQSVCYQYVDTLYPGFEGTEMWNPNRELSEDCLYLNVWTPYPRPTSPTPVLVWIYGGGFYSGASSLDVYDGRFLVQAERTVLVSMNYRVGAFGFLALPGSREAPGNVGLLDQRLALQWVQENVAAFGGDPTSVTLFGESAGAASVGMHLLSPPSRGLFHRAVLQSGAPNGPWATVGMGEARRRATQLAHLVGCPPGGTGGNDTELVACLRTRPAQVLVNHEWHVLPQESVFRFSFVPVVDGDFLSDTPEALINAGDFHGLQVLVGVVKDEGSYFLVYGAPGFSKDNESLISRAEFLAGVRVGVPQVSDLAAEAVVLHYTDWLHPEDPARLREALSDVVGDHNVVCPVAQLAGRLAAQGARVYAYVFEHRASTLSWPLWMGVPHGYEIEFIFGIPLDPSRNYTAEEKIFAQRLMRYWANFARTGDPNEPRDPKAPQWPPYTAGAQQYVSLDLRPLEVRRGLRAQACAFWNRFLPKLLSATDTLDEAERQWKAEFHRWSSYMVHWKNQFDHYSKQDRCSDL
Amyloid-beta precursor protein (Homo sapiens), sequence (P05067 whole entry): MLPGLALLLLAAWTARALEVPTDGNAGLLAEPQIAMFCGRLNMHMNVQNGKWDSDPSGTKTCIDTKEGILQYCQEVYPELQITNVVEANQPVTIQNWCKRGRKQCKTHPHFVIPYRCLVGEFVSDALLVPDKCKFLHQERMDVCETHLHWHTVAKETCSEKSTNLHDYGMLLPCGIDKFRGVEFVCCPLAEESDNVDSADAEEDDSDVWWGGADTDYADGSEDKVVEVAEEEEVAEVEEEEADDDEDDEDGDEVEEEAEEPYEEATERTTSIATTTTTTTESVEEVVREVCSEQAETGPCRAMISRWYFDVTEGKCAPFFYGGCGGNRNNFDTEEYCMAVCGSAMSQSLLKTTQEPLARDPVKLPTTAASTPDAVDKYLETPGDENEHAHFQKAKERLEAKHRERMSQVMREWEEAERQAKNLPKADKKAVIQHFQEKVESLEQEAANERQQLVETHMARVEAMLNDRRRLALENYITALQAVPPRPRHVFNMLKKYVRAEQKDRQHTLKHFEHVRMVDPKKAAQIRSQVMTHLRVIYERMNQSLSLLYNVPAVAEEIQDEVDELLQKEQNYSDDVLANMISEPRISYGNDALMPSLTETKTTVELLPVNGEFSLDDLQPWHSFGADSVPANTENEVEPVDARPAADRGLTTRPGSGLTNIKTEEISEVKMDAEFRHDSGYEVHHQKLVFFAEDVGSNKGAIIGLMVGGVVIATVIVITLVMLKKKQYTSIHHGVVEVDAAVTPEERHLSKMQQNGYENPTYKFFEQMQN
Beta-secretase 1, sequence (P56817 whole entry): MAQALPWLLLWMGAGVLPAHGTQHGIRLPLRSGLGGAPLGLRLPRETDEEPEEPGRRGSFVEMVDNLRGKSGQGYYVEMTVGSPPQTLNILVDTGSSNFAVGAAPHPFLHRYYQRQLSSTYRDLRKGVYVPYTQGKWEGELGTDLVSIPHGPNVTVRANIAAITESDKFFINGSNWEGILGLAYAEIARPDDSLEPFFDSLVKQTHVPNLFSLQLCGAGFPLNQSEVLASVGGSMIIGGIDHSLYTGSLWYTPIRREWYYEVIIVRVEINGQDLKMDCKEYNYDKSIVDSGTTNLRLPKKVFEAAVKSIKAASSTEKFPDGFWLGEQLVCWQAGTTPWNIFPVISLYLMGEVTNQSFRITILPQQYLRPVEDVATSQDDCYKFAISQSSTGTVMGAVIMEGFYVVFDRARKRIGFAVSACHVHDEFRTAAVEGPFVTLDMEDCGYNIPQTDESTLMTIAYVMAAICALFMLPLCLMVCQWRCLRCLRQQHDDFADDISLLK
Microtubule-associated protein tau (Homo sapiens), sequence (P10636 whole entry): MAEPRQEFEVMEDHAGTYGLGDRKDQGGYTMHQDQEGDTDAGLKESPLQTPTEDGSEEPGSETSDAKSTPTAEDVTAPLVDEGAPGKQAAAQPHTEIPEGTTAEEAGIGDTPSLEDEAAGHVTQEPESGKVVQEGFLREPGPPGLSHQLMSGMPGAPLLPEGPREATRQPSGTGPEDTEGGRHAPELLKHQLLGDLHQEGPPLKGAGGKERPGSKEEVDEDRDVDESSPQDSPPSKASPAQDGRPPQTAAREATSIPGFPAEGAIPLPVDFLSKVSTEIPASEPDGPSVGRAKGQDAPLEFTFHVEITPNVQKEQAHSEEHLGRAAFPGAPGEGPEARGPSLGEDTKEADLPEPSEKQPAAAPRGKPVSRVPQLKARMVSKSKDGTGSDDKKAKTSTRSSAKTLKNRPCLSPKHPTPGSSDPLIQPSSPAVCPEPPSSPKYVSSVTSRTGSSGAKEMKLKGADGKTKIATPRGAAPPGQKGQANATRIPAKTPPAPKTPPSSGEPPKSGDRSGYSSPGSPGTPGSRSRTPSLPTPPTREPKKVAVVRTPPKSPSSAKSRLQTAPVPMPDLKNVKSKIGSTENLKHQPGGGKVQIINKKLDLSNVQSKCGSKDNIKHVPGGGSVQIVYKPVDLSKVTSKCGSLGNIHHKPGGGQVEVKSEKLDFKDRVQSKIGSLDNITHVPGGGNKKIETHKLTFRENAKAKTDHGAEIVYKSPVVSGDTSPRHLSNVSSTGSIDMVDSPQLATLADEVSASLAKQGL

`CCN1CCc2c(c3ccccc3n2CCC(=O)N2c3ccccc3Sc3ccccc32)C1` displayed an IC50 in test [1] of 0.52 µM.
`C#CCN[C@@H]1CCc2ccc(OC(=O)N(C)CC)cc21` [LADOSTIGIL]: the IC50 in [2] was determined as 1050 µM.
As to `Cc1ccc2c(c1)c1c(n2CCc2ccc(C)nc2)CCN(C)C1` [LATREPIRDINE], the values for the half-inhibitory concentration (IC50) in test [3] and in test [4] were 57 µM and 7900 µM, respectively. In test [5], the EC50 is 42 mg/kg.
For the molecule `Cc1ccc2[nH]c3c(c2c1)CN(CCCCCCN1CCc2[nH]c4ccc(C)cc4c2C1)CC3`, the IC50 was determined as 0.195 µM in test [6] and 11 µM in [7].
Regarding `CC[C@@H](CN1CCCC1=O)C(=O)NCCCCCCCNc1c2c(nc3cc(Cl)ccc13)C[C@H]1C=C(C)C[C@@H]2C1`, the IC50 in test [8] stood at 0.232 µM; in test [6] it was 0.0042 µM. In addition, the inhibition is 36% in test [9] and 54% in test [10].
Turning to `O=c1[nH]c(=O)c2cc[nH]c2[nH]1` [7-DEAZAXANTHINE], the IC50 turned out to be 0.3 µM in test [11] and 0.7 µM in test [12].
